Measured values taken from patent US12729377B2, “RNAi agents and compositions for inhibiting expression of angiopoietin-like 3 (ANGPTL3), and methods of use” (Arrowhead Pharmaceuticals, Inc., priority 2017, dated 2026).
In the oligonucleotide strings, read from the 5' end, every base follows the letter of its sugar. An asterisk marks phosphorothioate; unmarked linkages are phosphodiester. Other units and linkages are bracketed, terminal groups are in braces. A string of capitals states the bases alone. {NAG37} = tridentate N-acetyl-galactosamine targeting ligand, structure (NAG37)s; [invAb] = inverted abasic unit; m = 2'-O-methyl; f = 2'-fluoro

Legend:
ANGPTL3 gene [1] = assay: Example 7: serum HDL in mice; format: in vivo; parameters: key: ratio: (level/pre-treatment day -1 level) ÷ mean of D5W control group; conditions: 0.5 mg/kg single SC injection day 1, female C57bl/6 mice, n=3, ratio to D5W control
In short: (§1)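 Female C57bl/6 mice (6–8 weeks, n=3) received a single subcutaneous dose of 0.5 mg/kg GalNAc-conjugated RNAi agent or D5W vehicle. Serum was taken after a 4 h fast at day −1 and days 8, 15, 22 and 29. ANGPTL3 was measured by ELISA and lipids by clinical analyzer, each normalised to the animal's pre-dose level and then to the D5W group mean.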

ANGPTL3 gene [2] = assay: Example 7: serum triglycerides in mice; format: in vivo, C57bl/6 mice; parameters: key: ratio: (level/pre-treatment day -1 level) ÷ mean of D5W control group
In short: as §1

ANGPTL3 gene [3] = assay: Example 4: serum total cholesterol in mice; format: in vivo, C57bl/6 mice
Procedure: (§2) To assess the in vivo activity of ANGPTL3 RNAi agents that are designed to target additional positions on the ANGPTL3 gene, six- to eight-week-old female C57bl/6 mice were used. Pre-dose serum samples were taken at day −1 after a four hour fast. At day 1, each mouse was given a single subcutaneous administration of 200 μl containing either 1 mg/kg (mpk) or 0.5 mg/kg (mpk) of an ANGPTL3 RNAi agent in D5W (dextrose in 5% water), or control (D5W) with no RNAi agent, according to the dosing groups recited in Table 17.
(§3) Each of the RNAi agents included a modified sequence and an N-acetyl-galactosamine-containing targeting ligand conjugated to the 5′ terminal end of the sense strand. (See Tables 3, 4, and 5 for modified sequences and targeting ligand structures). The injections were performed between the skin and muscle (i.e. subcutaneous injections) into the loose skin over the neck and shoulder area. Three (3) mice in each group were tested (n=3). Serum was collected on days 8, 15, 22, 29, and day 43 (Groups 1-3, 9, and 11-13 only). Mice were fasted for four hours prior to each collection. ANGPTL3 protein levels in serum were measured by ELISA assay (R&D Systems), according to the manufacturer's recommendations. Triglycerides, high-density lipoprotein (HDL), and total cholesterol in serum were measured on a Cobas® Integra 400 (Roche Diagnostics), according to the manufacturer's recommendations.
(§4) The ANGPTL3 protein levels, triglyceride levels, HDL levels, and total cholesterol levels for each animal were normalized. For normalization, the level of ANGPTL3 protein, triglyceride, HDL, and total cholesterol, respectively, for each animal at a time point, was divided by the pre-treatment level of expression in that animal (in this case at day −1) to determine the ratio of expression “normalized to pre-treatment.” Expression at a specific time point was then normalized to the D5W control group by dividing the “normalized to pre-treatment” ratio for an individual animal by the mean “normalized to pretreatment” ratio of all mice in the D5W control group.

ANGPTL3 protein [4] = assay: Example 3: serum ANGPTL3 protein by ELISA in mice; format: in vivo, C57bl/6 mice; conditions: for Avg ANGPTL3 (Average ANGPTL3 Protein Normalized to Pre-Treatment and Control): 1.0 mg/kg single subcutaneous dose on day 1, serum, female C57bl/6 mice
Procedure: To assess the in vivo activity of ANGPTL3 RNAi agents that are designed to target positions 921 and 922 on the ANGPTL3 gene, six- to eight-week-old female C57bl/6 mice were used. Pre-dose serum samples were taken at day −1 after a four hour fast. At day 1, each mouse was given a single subcutaneous administration of 200 μl containing either 1 mg/kg (mpk) of an ANGPTL3 RNAi agent in D5W (dextrose in 5% water), or control (D5W) with no RNAi agent, according to the dosing groups recited in Table 12.
as §3, with “Serum was collected on days 8, 15, 22, 29, and day 43 (Groups 1-3, 9, and 11-13 only).” left out
as §4

ANGPTL3 protein [5] = assay: Example 4: serum ANGPTL3 protein by ELISA in mice; format: in vivo, C57bl/6 mice; conditions: serum, female C57bl/6 mice
Procedure: as §2, §3, §4

[6] = Day 8, 0.5 mg/kg single SC injection on day 1, n=3
[7] = Day 15, 0.5 mg/kg single SC injection on day 1, n=3
[8] = Day 22, 0.5 mg/kg single SC injection on day 1, n=3
[9] = Day 29, 0.5 mg/kg single SC injection on day 1, n=3
[10] = Day 8, 1.0 mg/kg single SC injection on day 1, n=3
[11] = Day 15, 1.0 mg/kg single SC injection on day 1, n=3
[12] = Day 22, 1.0 mg/kg single SC injection on day 1, n=3
[13] = Day 29, 1.0 mg/kg single SC injection on day 1, n=3
[14] = Day 43, 1.0 mg/kg single SC injection on day 1, n=3
[15] = day 22, single 1 mg/kg subcutaneous, C57bl/6 mice
[16] = Day 8, 1.0 mg/kg single subcutaneous dose on day 1
[17] = Day 15, 1.0 mg/kg single subcutaneous dose on day 1
[18] = Day 22, 1.0 mg/kg single subcutaneous dose on day 1
[19] = Day 29, 1.0 mg/kg single subcutaneous dose on day 1
[20] = Day 43, 1.0 mg/kg single subcutaneous dose on day 1

| Substance | Avg HDL, normalized to pre-treatment and control (ANGPTL3 gene [1]; Day 8) | Avg HDL, normalized to pre-treatment and control (ANGPTL3 gene [1]; Day 15) | Avg HDL, normalized to pre-treatment and control (ANGPTL3 gene [1]; Day 22) | Avg HDL, normalized to pre-treatment and control (ANGPTL3 gene [1]; Day 29) | Avg TG, normalized to pre-treatment and control (ANGPTL3 gene [2]; [6]) | Avg TG, normalized to pre-treatment and control (ANGPTL3 gene [2]; [7]) | Avg TG, normalized to pre-treatment and control (ANGPTL3 gene [2]; [8]) | Avg TG, normalized to pre-treatment and control (ANGPTL3 gene [2]; [9]) | Avg Total Chol, normalized to pre-treatment and control (ANGPTL3 gene [3]; [10]) | Avg Total Chol, normalized to pre-treatment and control (ANGPTL3 gene [3]; [11]) | Avg Total Chol, normalized to pre-treatment and control (ANGPTL3 gene [3]; [12]) | Avg Total Chol, normalized to pre-treatment and control (ANGPTL3 gene [3]; [13]) | Avg Total Chol, normalized to pre-treatment and control (ANGPTL3 gene [3]; [14]) | Avg ANGPTL3 (Average ANGPTL3 Protein Normalized to Pre-Treatment and Control) (ANGPTL3 protein [4]; Day 8) | Avg ANGPTL3 (Average ANGPTL3 Protein Normalized to Pre-Treatment and Control) (ANGPTL3 protein [4]; Day 15) | Avg ANGPTL3 (Average ANGPTL3 Protein Normalized to Pre-Treatment and Control) (ANGPTL3 protein [4]; Day 22) | Avg ANGPTL3 (Average ANGPTL3 Protein Normalized to Pre-Treatment and Control) (ANGPTL3 protein [4]; Day 29) | Avg ANGPTL3 (Average ANGPTL3 Protein Normalized to Pre-Treatment and Control) (ANGPTL3 protein [5]; [16]) | Avg ANGPTL3 (Average ANGPTL3 Protein Normalized to Pre-Treatment and Control) (ANGPTL3 protein [5]; [17]) | Avg ANGPTL3 (Average ANGPTL3 Protein Normalized to Pre-Treatment and Control) (ANGPTL3 protein [5]; [18]) | also measured |
| --- | --- | --- | --- | --- | --- | --- | --- | --- | --- | --- | --- | --- | --- | --- | --- | --- | --- | --- | --- | --- | --- |
| AD05308: RNAi agent duplex: antisense AM07003-AS, sense AM07002-SS (chain 1 mU*fG*mU*fUmGfAmAfUmUfAmAfUmGfUmCfCmAfUmGfG*mA; chain 2 {NAG37}*[invAb]*mUmCmCmAmUmGmGmAfCfAfUmUmAmAmUmUmCmAmAmCmA*[invAb]) | 0.750 | 0.791 | 0.846 | 0.905 | 0.836 | 0.755 | 0.839 | 0.705 | 0.868 | 0.793 | 0.770 | 0.819 | 1.073 | 0.196 | 0.202 | 0.209 | 0.309 | 0.299 | 0.298 | 0.252 | Avg Total Chol, normalized to pre-treatment and control (ANGPTL3 gene [3]; [6]): 0.992; Avg Total Chol, normalized to pre-treatment and control (ANGPTL3 gene [3]; [7]): 0.838; Avg Total Chol, normalized to pre-treatment and control (ANGPTL3 gene [3]; [8]): 1.000; Avg Total Chol, normalized to pre-treatment and control (ANGPTL3 gene [3]; [9]): 0.958; Avg Total Chol, normalized to pre-treatment and control (ANGPTL3 gene [3]; Day 43, 0.5 mg/kg single SC injection on day 1, n=3): 1.157; ANGPTL3 protein normalized to pre-treatment and control (ANGPTL3 protein [4]; [15]): 0.209; reduction in ANGPTL3 protein levels compared to control (ANGPTL3 protein [4]; [15]): ~80%; Avg ANGPTL3 (Average ANGPTL3 Protein Normalized to Pre-Treatment and Control) (ANGPTL3 protein [5]; Day 8, 0.5 mg/kg single subcutaneous dose on day 1): 0.340; Avg ANGPTL3 (Average ANGPTL3 Protein Normalized to Pre-Treatment and Control) (ANGPTL3 protein [5]; Day 15, 0.5 mg/kg single subcutaneous dose on day 1): 0.310; Avg ANGPTL3 (Average ANGPTL3 Protein Normalized to Pre-Treatment and Control) (ANGPTL3 protein [5]; Day 22, 0.5 mg/kg single subcutaneous dose on day 1): 0.319; Avg ANGPTL3 (Average ANGPTL3 Protein Normalized to Pre-Treatment and Control) (ANGPTL3 protein [5]; Day 29, 0.5 mg/kg single subcutaneous dose on day 1): 0.345; Avg ANGPTL3 (Average ANGPTL3 Protein Normalized to Pre-Treatment and Control) (ANGPTL3 protein [5]; [19]): 0.322; Avg ANGPTL3 (Average ANGPTL3 Protein Normalized to Pre-Treatment and Control) (ANGPTL3 protein [5]; Day 43, 0.5 mg/kg single subcutaneous dose on day 1): 0.582; Avg ANGPTL3 (Average ANGPTL3 Protein Normalized to Pre-Treatment and Control) (ANGPTL3 protein [5]; [20]): 0.643 |
| AD05418: RNAi agent duplex: antisense AM07159-AS, sense AM07158-SS (antisense mU*fU*mU*fGmAfAmUfUmAfAmUfGmUfCmCfAmUfGmGfG*mU; sense {NAG37}*[invAb]*mAmCmCmCmAmUmGmGfAfCfAmUmUmAmAmUmUmCmAmAmA*[invAb]) | 0.907 | 0.857 | 0.910 | 1.048 | 0.830 | 0.655 | 0.815 | 0.586 | 0.818 | 0.761 | 0.915 | 0.853 | 1.002 | 0.236 | 0.290 | 0.394 | 0.517 | 0.258 | 0.270 | 0.387 | Avg ANGPTL3 (Average ANGPTL3 Protein Normalized to Pre-Treatment and Control) (ANGPTL3 protein [5]; [19]): 0.407; Avg ANGPTL3 (Average ANGPTL3 Protein Normalized to Pre-Treatment and Control) (ANGPTL3 protein [5]; [20]): 0.847 |
